Source: patent publication US11981658B2, “Substituted aminopyridine compounds as EGFR inhibitors” (YUHAN CORPORATION, priority 2021, dated 2024)
Like-named read-outs stand apart in the source and are kept apart here.

What was measured:
EGFR Del19/T790M/C797S = EGFR Del19/T790M/C797S (Homo sapiens, UniProt P00533, C797S/DEL746-750/T790M); assay: Biochemical EGFR kinase inhibition assay (Lance Ultra TR-FRET), triple mutant del19/T790M/C797S
Outline: (§1)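 In this biochemical assay, phosphorylation after a one-hour room-temperature reaction was detected with europium-labelled anti-phosphopeptide antibody at 2 nM final concentration.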

EGFR L858R/T790M/C797S = EGFR L858R/T790M/C797S (Homo sapiens, UniProt P00533, C797S/L858R/T790M); assay: Biochemical EGFR kinase inhibition assay (Lance Ultra TR-FRET), triple mutant L858R/T790M/C797S
Outline: as §1

EGFR Del19/C797S = EGFR Del19/C797S (Homo sapiens, UniProt P00533, C797S/DEL746-750); assay: Biochemical EGFR kinase inhibition assay (Lance Ultra TR-FRET), double mutant del19/C797S
Outline: as §1

EGFR wildtype (WT) = EGFR wildtype (WT) (Homo sapiens, UniProt P00533); assay: Biochemical EGFR kinase inhibition assay (Lance Ultra TR-FRET), wildtype
Outline: as §1

EGFR L858R/C797S = EGFR L858R/C797S (Homo sapiens, UniProt P00533, C797S/L858R); assay: Biochemical EGFR kinase inhibition assay (Lance Ultra TR-FRET), double mutant L858R/C797S
Outline: as §1

[1] = IC50 Del19/T790M/C797S (nM), 100 μM ATP
[2] = IC50 L858R/T790M/C797S (nM), 100 μM ATP
[3] = IC50 Del19/C797S (nM), 100 μM ATP
[4] = IC50 L858R/C797S (nM), 100 μM ATP
[5] = Km ATP, read-out: IC50 Del19/T790M/C797S (nM) Km ATP
[6] = Km ATP, read-out: IC50 L858R/T790M/C797S (nM) Km ATP
[7] = Km ATP, read-out: IC50 Del19/C797S (nM) Km ATP
[8] = Km ATP, read-out: IC50 WT (nM) Km ATP
[9] = Km ATP, read-out: IC50 L858R/C797S (nM) Km ATP

Sequence of EGFR L858R/T790M/C797S (P00533 25-1210 T790M/C797S/L858R): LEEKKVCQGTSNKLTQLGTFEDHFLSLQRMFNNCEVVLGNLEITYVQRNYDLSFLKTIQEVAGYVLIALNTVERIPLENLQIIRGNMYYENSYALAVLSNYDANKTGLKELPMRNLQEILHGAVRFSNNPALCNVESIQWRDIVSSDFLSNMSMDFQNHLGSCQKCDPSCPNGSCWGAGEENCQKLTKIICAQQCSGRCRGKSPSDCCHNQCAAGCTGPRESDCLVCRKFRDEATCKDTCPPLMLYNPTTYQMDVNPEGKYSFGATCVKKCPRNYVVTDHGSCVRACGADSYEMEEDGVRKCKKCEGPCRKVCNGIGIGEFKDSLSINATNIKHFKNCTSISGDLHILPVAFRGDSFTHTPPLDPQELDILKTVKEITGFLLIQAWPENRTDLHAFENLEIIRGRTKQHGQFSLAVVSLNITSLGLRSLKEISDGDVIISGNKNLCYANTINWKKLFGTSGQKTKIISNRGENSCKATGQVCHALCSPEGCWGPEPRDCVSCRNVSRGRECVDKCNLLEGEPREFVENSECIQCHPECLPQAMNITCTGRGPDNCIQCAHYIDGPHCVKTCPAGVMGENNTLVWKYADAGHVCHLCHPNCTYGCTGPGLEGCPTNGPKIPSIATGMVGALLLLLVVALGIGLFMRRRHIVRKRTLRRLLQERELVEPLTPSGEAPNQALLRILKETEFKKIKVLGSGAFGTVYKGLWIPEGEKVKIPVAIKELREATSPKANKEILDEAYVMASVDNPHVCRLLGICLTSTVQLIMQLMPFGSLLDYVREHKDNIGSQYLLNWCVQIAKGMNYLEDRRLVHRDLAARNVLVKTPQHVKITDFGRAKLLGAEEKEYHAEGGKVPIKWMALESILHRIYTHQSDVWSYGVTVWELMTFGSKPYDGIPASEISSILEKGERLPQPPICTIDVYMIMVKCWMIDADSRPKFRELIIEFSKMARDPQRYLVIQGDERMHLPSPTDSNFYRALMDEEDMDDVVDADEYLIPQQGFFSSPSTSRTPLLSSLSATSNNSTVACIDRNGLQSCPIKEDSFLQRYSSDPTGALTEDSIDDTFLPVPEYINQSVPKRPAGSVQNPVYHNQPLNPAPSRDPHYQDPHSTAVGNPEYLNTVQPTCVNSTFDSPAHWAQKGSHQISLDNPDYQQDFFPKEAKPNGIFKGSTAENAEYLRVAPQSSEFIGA
Sequence of EGFR wildtype (WT) (P00533 25-1210): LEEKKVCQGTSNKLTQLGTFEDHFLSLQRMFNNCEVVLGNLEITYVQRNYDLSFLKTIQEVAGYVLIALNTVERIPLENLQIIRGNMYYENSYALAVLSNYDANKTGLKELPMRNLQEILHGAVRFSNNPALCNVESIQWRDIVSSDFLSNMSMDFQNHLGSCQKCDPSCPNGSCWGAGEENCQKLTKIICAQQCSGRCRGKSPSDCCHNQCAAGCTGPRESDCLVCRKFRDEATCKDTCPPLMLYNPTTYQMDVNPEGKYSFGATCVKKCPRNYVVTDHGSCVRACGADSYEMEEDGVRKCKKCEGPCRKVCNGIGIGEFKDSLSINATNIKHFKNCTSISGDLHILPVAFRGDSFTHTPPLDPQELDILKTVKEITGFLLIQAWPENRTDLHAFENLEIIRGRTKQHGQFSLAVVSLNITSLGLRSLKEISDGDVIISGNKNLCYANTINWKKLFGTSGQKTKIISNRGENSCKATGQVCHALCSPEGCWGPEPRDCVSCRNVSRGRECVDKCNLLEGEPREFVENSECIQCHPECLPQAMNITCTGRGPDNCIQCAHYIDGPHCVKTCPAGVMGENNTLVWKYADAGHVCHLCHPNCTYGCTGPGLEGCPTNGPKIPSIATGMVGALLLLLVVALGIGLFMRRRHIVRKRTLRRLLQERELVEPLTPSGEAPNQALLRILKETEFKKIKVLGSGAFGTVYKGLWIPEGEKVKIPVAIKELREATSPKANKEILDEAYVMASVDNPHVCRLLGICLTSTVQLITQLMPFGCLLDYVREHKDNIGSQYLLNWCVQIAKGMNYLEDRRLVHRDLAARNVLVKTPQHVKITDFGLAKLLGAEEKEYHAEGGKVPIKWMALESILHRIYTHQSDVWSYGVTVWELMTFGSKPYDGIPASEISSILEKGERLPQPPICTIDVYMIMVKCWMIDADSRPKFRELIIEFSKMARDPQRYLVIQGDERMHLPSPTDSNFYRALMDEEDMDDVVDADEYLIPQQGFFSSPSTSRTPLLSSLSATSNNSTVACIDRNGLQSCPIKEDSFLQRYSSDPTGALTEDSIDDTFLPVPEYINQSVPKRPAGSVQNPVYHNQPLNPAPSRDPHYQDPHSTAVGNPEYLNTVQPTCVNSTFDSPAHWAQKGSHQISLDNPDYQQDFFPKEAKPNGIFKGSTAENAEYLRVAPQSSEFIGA
Sequence of EGFR Del19/T790M/C797S (P00533 with tags, fused parts or gaps DEL746-750/T790M/C797S): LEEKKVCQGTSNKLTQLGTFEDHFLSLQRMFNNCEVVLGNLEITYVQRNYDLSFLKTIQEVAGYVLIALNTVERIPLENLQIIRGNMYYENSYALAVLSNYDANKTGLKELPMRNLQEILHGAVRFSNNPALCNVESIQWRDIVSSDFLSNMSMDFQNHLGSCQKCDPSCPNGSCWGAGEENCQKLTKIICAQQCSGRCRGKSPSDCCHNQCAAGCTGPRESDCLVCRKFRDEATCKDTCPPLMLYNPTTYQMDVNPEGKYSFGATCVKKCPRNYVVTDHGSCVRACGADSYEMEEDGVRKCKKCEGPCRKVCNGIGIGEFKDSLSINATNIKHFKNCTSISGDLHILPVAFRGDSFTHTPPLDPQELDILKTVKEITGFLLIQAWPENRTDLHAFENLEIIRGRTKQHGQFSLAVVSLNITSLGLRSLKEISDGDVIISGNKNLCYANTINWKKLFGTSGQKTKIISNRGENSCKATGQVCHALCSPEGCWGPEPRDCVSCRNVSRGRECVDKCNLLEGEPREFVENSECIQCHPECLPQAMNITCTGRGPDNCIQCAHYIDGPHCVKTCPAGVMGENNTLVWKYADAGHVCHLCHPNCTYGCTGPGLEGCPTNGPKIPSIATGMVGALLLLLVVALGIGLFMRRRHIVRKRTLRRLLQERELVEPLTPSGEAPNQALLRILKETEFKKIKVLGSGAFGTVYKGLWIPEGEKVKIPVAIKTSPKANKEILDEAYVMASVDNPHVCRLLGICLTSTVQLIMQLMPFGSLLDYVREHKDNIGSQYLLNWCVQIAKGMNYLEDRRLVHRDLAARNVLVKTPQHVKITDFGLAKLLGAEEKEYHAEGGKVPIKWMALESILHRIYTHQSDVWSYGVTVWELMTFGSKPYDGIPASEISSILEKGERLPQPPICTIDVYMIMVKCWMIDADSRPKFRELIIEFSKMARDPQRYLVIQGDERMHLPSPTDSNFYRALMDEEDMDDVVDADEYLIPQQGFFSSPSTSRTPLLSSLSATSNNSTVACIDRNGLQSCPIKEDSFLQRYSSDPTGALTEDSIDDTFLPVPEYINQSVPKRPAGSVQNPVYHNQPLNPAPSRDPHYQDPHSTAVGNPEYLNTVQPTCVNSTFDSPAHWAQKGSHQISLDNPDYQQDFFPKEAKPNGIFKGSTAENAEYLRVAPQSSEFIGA
Sequence of EGFR Del19/C797S (P00533 with tags, fused parts or gaps DEL746-750/C797S): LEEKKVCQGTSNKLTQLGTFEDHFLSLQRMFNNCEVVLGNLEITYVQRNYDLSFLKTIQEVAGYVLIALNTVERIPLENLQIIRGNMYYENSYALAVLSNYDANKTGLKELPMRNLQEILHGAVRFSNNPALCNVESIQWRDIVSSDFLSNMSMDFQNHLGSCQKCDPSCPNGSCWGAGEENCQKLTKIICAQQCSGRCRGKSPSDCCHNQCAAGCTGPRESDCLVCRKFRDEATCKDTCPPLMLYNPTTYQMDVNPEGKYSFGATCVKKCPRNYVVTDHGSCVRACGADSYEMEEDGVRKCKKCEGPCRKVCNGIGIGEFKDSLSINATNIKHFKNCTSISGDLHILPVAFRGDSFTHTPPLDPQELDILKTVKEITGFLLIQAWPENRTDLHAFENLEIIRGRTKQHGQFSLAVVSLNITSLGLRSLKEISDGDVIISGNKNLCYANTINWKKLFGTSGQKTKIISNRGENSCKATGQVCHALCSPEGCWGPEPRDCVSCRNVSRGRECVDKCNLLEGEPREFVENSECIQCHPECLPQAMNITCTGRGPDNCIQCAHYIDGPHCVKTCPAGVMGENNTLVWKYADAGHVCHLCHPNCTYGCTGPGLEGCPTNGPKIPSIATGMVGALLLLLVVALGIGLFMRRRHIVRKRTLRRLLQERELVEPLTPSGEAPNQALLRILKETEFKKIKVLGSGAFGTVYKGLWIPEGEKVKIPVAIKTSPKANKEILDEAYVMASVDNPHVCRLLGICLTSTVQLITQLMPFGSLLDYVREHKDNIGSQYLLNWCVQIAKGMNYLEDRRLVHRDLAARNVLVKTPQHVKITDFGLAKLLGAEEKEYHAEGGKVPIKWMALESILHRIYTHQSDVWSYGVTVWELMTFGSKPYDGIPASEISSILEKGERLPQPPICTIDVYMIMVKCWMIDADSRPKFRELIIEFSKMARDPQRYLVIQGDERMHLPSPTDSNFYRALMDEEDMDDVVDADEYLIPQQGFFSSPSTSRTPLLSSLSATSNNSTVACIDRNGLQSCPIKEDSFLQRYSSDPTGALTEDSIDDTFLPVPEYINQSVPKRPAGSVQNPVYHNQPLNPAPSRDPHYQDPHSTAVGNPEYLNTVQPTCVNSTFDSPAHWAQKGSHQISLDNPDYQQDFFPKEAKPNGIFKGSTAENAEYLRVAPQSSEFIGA

SMILES	IC50 (EGFR Del19/T790M/C797S; [1]) [nM]	IC50 (EGFR L858R/T790M/C797S; [2]) [nM]	IC50 (EGFR Del19/C797S; [3]) [nM]	IC50 (EGFR wildtype (WT); IC50 WT (nM), 100 μM ATP) [nM]	IC50 (EGFR L858R/C797S; [4]) [nM]	IC50 (EGFR Del19/T790M/C797S; [5]) [nM]	IC50 (EGFR L858R/T790M/C797S; [6]) [nM]	IC50 (EGFR Del19/C797S; [7]) [nM]	IC50 (EGFR wildtype (WT); [8]) [nM]	IC50 (EGFR L858R/C797S; [9]) [nM]
Cn1cc(C#Cc2cnc(Nc3ccnc(-c4cnn(S(=O)(=O)C5CC5)c4)n3)cc2N2CCC(NCCC(F)(F)F)CC2)cn1 [Example 127, 2-(1-(Cyclopropylsulfonyl)-1H-pyrazol-4-yl)-N-(5-((1-methyl-1H-pyrazol-4-yl)ethynyl)-4-(4-((3,3,3-trifluoropropyl)amino)piperidin-1-yl)pyridin-2-yl)pyrimidin-4-amine]	2.8	1.8	6.9	> 10000	45.7					
Cn1cc(C#Cc2cnc(Nc3ccnc(-c4cnn(S(=O)(=O)C5CC5)c4)n3)cc2N2CCC(N3CC(F)(F)C3)CC2)cn1 [Example 128, 2-(1-(Cyclopropylsulfonyl)-1H-pyrazol-4-yl)-N-(4-(4-(3,3-difluoroazetidin-1-yl)piperidin-1-yl)-5-((1-methyl-1H-pyrazol-4-yl)ethynyl)pyridin-2-yl)pyrimidin-4-amine]	7.1	4.8	29.5	> 10000	73					
Cn1cc(C#Cc2cnc(Nc3ccnc(-c4cnn(S(=O)(=O)C5CC5)c4)n3)cc2N2CCC(NCCF)CC2)cn1 [Example 129, 2-(1-(Cyclopropylsulfonyl)-1H-pyrazol-4-yl)-N-(4-(4-((2-fluoroethyl)amino)piperidin-1-yl)-5-((1-methyl-1H-pyrazol-4-yl)ethynyl)pyridin-2-yl)pyrimidin-4-amine]	0.5	0.8	4.4	> 10000	23.8					
CNC1CCN(c2cc(Nc3ccnc(-c4cnn(S(=O)(=O)C5CC5)c4)n3)ncc2C#Cc2cnn(C)c2)CC1 [Example 130, 2-(1-(Cyclopropylsulfonyl)-1H-pyrazol-4-yl)-N-(5-((1-methyl-1H-pyrazol-4-yl)ethynyl)-4-(4-(methylamino)piperidin-1-yl)pyridin-2-yl)pyrimidin-4-amine]	1.4	5.1	107	> 10000	68.7					
Cn1cc(C#Cc2cnc(Nc3ccnc(-c4cnn(S(=O)(=O)C5CC5)c4)n3)cc2N2CCC(NCCO)CC2)cn1 [Example 131, 2-((1-(2-((2-(1-(Cyclopropylsulfonyl)-1H-pyrazol-4-yl)pyrimidin-4-yl)amino)-5-((1-methyl-1H-pyrazol-4-yl)ethynyl)pyridin-4-yl)piperidin-4-yl)amino)ethan-1-ol]	0.7	2.6	50.8	> 10000	35.6					
COCCNC1CCN(c2cc(Nc3ccnc(-c4cnn(S(=O)(=O)C5CC5)c4)n3)ncc2C#Cc2cnn(C)c2)CC1 [Example 132, 2-(1-(Cyclopropylsulfonyl)-1H-pyrazol-4-yl)-N-(4-(4-((2-methoxyethyl)amino)piperidin-1-yl)-5-((1-methyl-1H-pyrazol-4-yl)ethynyl)pyridin-2-yl)pyrimidin-4-amine]	1.3	4.2	131	> 10000	46.4					
CN(C)CCNC1CCN(c2cc(Nc3ccnc(-c4cnn(S(=O)(=O)C5CC5)c4)n3)ncc2C#Cc2cnn(C)c2)CC1 [Example 133, N^1-(1-(2-((2-(1-(Cyclopropylsulfonyl)-1H-pyrazol-4-yl)pyrimidin-4-yl)amino)-5-((1-methyl-1H-pyrazol-4-yl)ethynyl)pyridin-4-yl)piperidin-4-yl)-N^2,N^2-dimethylethane-1,2-diamine]	0.3	0.4	2.4	3840	3.5					
CN(C)C(C)(C)CNC1CCN(c2cc(Nc3ccnc(-c4cnn(S(=O)(=O)C5CC5)c4)n3)ncc2C#Cc2cnn(C)c2)CC1 [Example 134, N^4-(1-(2-((2-(1-(Cyclopropylsulfonyl)-1H-pyrazol-4-yl)pyrimidin-4-yl)amino)-5-((1-methyl-1H-pyrazol-4-yl)ethynyl)pyridin-4-yl)piperidin-4-yl)-N^2,N^2,2-trimethylpropane-1,2-diamine]	0.4	0.9	2.3	> 10000	121	0.4	0.1	1.5	40.5	5.6
Cn1cc(C#Cc2cnc(Nc3ccnc(-c4cnn(S(=O)(=O)C5CC5)c4)n3)cc2N2CCC(NCC(F)(F)F)CC2)cn1 [Example 135, 2-(1-(Cyclopropylsulfonyl)-1H-pyrazol-4-yl)-N-(5-((1-methyl-1H-pyrazol-4-yl)ethynyl)-4-(4-((2,2,2-trifluoroethyl)amino)piperidin-1-yl)pyridin-2-yl)pyrimidin-4-amine]	2.6	5.2	3	> 10000	40.6	0.7	0.6	1.6	28.7	4.1
O=S(=O)(C1CC1)n1cc(-c2nccc(Nc3cc(N4CCC(NCCF)CC4)c(C#Cc4cnn(C5CCOCC5)c4)cn3)n2)cn1 [Example 136, 2-(1-(Cyclopropylsulfonyl)-1H-pyrazol-4-yl)-N-(4-(4-((2-fluoroethyl)amino)piperidin-1-yl)-5-((1-(tetrahydro-2H-pyran-4-yl)-1H-pyrazol-4-yl)ethynyl)pyridin-2-yl)pyrimidin-4-amine]	0.3	1.2	4.9	> 10000	30.5	0.3	0.3	3.3	60.2	2.7
O=S(=O)(C1CC1)n1cc(-c2nccc(Nc3cc(N4CCC(NCCO)CC4)c(C#Cc4cnn(C5CCOCC5)c4)cn3)n2)cn1 [Example 137, 2-((1-(2-((2-(1-(Cyclopropylsulfonyl)-1H-pyrazol-4-yl)pyrimidin-4-yl)amino)-5-((1-(tetrahydro-2H-pyran-4-yl)-1H-pyrazol-4-yl)ethynyl)pyridin-4-yl)piperidin-4-yl)amino)ethan-1-ol]	0.4	2	11.7	> 10000	74.2	0.4	0.4	8.8	174	5
CN(C)CCNC1CCN(c2cc(Nc3ccnc(-c4cnn(S(=O)(=O)C5CC5)c4)n3)ncc2C#Cc2cnn(C3CCOCC3)c2)CC1 [Example 138, N^1-(1-(2-((2-(1-(Cyclopropylsulfonyl)-1H-pyrazol-4-yl)pyrimidin-4-yl)amino)-5-((1-(tetrahydro-2H-pyran-4-yl)-1H-pyrazol-4-yl)ethynyl)pyridin-4-yl)piperidin-4-yl)-N^2,N^2-dimethylethane-1,2-diamine]	0.3	0.4	1.3	2940	8.7	0.3	0.1	1	7.8	0.9
CC(=O)N1CCC(n2cc(C#Cc3cnc(Nc4ccnc(-c5cnn(S(=O)(=O)C6CC6)c5)n4)cc3N3CCC(NCCN(C)C)CC3)cn2)CC1 [Example 139, 1-(4-(4-((6-((2-(1-(Cyclopropylsulfonyl)-1H-pyrazol-4-yl)pyrimidin-4-yl)amino)-4-(4-((2-(dimethylamino)ethyl)amino)piperidin-1-yl)pyridin-3-yl)ethynyl)-1H-pyrazol-1-yl)piperidin-1-yl)ethan-1-one]	0.4	0.4	1.4	1580	8.2	0.4	0.1	0.9	5.4	0.9
CNC1CCN(c2cc(Nc3ccnc(-c4cnn(S(=O)(=O)C5CC5)c4)n3)ncc2C#Cc2ccn(C)n2)CC1 [Example 140, 2-(1-(Cyclopropylsulfonyl)-1H-pyrazol-4-yl)-N-(5-((1-methyl-1H-pyrazol-3-yl)ethynyl)-4-(4-(methylamino)piperidin-1-yl)pyridin-2-yl)pyrimidin-4-amine]	1.8	6.4	176	> 10000	887	1.3	1.3	114	622	23.2
Cn1ccc(C#Cc2cnc(Nc3ccnc(-c4cnn(S(=O)(=O)C5CC5)c4)n3)cc2N2CCC(NCCF)CC2)n1 [Example 141, 2-(1-(Cyclopropylsulfonyl)-1H-pyrazol-4-yl)-N-(4-(4-((2-fluoroethyl)amino)piperidin-1-yl)-5-((1-methyl-1H-pyrazol-3-yl)ethynyl)pyridin-2-yl)pyrimidin-4-amine]	0.9	3.4	49.1	> 10000	1900	0.7	0.7	48.7	256	13.7
